The text below walks through data of publication PMC5190074, “BET inhibition as a new strategy for the treatment of gastric cancer” (Oncotarget, 2016).

Test in all cases: biochemical
Holding throughout (parameters): thermal shift assay (real-time PCR machine), melting temperature shift of recombinant bromodomains at 2 uM protein

For experiment [1], the target named is T1, PCAF (Homo sapiens, UniProt Q92831).
T1 construct: gene KAT2B; bromodomain
How it is done: (§1) The recombinant bromodomains at 2 μM were mixed with 10 μM inhibitors. The assays and data evaluation for melting temperatures were performed using a Real-Time PCR Mx3005p machine (Stratagene) and the protocols previously described. Experiments profiling the final compound (PNZ5) were performed in quadruplicates. […] Since its discovery in our own labs, similar inhibitors have also been disclosed by researchers at Boehringer Ingelheim [reference: patent, WO 2014/154760 [31]]. The inhibitor contains two possible acetyl-lysine mimetic moieties. In order to obtain molecular insights on the interaction of the developed inhibitor, the crystal structure of the first bromodomain of BRD4 in complex with PNZ5 was solved at 1.85 Å (Figure 2C and Supplementary Table 4, 5FBX.pdb). The inhibitor, coordinating residues and water molecules were well defined by the electron density. The dimethylisoxazole moiety mimicked the acetyl lysine side chain and formed two canonical hydrogen-bond interactions with Asn140 and water mediated hydrogen-bond with Tyr 97 (Figure 2C). The common network of waters within the binding site was also conserved in the BRD4(1)-PNZ5 complex. The compound was further stabilized by lipophilic interactions with residues forming the binding site Leu92, Leu94, Ile146. The [compound left out] substituent was well accommodated next to the WPF shelf, as well as the N1-methyl substituent that formed hydrophobic interactions with Trp81. The carbonyl on the isoindolinone established a water-mediated hydrogen bond with Lys91.

Experiment [2] concerns the target T2, EP300 (Homo sapiens, UniProt Q09472).
T2 construct: bromodomain
On the procedure: as §1

Experiment [3] addresses T3, WDR9(2) (Homo sapiens, UniProt Q9NSI6).
T3 construct: gene BRWD1; bromodomain 2
On the procedure:
as §1

Experiment [4] has as its target T4, PB1(6) (Homo sapiens, UniProt Q86U86).
T4 construct: gene PBRM1; bromodomain 6
How it is done:
as §1

The target in experiment [5] is T5, CECR2 (Homo sapiens, UniProt Q9BXF3).
T5 construct: bromodomain
How it is done:
as §1

The target of experiment [6] is T6, ASH1L (Homo sapiens, UniProt Q9NR48).
T6 construct: bromodomain
On the procedure: as §1

The target of experiment [7] is T7, BRD9 (Homo sapiens, UniProt Q9H8M2).
T7 construct: bromodomain
On the procedure: as §1

Experiment [8] concerns the target T8, BRD7 (Homo sapiens, UniProt Q9NPI1).
T8 construct: bromodomain
How it is done: as §1

Experiment [9] has as its target T9, BRDT(2) (Homo sapiens, UniProt Q58F21).
T9 construct: bromodomain 2
On the procedure: as §1

The target in experiment [10] is T10, BAZ2A (Homo sapiens, UniProt Q9UIF9).
T10 construct: bromodomain
How it is done: as §1

Experiment [11] deals with T11, BRPF1B (Homo sapiens, UniProt P55201).
T11 construct: gene BRPF1; isoform B bromodomain
How it is done: as §1

The target in experiment [12] is T12, BRD3(2) (Homo sapiens, UniProt Q15059).
T12 construct: bromodomain 2
On the procedure: as §1

Experiment [13] deals with T13, ATAD2B (Homo sapiens, UniProt Q9ULI0).
T13 construct: bromodomain
How it is done: as §1

The target of experiment [14] is T14, TAF1L(2) (Homo sapiens, UniProt Q8IZX4).
T14 construct: bromodomain 2
How it is done: as §1

In experiment [15] the target is T15, PB1(4) (Homo sapiens, UniProt Q86U86).
T15 construct: gene PBRM1; bromodomain 4
How it is done: as §1

T1 sequence (Q92831 whole entry): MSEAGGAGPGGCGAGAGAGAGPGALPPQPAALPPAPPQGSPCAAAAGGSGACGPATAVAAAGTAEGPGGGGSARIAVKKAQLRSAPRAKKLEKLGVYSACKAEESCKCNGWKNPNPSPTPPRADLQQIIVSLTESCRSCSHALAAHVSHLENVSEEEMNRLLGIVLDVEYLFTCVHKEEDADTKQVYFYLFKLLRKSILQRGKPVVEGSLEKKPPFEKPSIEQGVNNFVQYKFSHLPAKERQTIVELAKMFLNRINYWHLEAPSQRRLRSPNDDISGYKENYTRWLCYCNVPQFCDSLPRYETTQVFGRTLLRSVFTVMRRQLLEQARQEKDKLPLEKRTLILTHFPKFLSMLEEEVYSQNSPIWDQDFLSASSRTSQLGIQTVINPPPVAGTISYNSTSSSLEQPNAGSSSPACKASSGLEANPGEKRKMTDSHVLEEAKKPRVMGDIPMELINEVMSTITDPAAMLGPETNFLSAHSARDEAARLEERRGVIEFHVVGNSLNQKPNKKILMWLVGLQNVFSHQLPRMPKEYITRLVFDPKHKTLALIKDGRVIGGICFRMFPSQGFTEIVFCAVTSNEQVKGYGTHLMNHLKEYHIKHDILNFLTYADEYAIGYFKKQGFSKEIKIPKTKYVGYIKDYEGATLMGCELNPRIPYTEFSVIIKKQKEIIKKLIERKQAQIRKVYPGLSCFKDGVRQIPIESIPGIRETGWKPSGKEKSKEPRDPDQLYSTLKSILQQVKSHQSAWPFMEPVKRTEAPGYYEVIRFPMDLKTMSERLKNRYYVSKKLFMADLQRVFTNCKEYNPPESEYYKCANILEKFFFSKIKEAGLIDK
T2 sequence (Q09472 whole entry): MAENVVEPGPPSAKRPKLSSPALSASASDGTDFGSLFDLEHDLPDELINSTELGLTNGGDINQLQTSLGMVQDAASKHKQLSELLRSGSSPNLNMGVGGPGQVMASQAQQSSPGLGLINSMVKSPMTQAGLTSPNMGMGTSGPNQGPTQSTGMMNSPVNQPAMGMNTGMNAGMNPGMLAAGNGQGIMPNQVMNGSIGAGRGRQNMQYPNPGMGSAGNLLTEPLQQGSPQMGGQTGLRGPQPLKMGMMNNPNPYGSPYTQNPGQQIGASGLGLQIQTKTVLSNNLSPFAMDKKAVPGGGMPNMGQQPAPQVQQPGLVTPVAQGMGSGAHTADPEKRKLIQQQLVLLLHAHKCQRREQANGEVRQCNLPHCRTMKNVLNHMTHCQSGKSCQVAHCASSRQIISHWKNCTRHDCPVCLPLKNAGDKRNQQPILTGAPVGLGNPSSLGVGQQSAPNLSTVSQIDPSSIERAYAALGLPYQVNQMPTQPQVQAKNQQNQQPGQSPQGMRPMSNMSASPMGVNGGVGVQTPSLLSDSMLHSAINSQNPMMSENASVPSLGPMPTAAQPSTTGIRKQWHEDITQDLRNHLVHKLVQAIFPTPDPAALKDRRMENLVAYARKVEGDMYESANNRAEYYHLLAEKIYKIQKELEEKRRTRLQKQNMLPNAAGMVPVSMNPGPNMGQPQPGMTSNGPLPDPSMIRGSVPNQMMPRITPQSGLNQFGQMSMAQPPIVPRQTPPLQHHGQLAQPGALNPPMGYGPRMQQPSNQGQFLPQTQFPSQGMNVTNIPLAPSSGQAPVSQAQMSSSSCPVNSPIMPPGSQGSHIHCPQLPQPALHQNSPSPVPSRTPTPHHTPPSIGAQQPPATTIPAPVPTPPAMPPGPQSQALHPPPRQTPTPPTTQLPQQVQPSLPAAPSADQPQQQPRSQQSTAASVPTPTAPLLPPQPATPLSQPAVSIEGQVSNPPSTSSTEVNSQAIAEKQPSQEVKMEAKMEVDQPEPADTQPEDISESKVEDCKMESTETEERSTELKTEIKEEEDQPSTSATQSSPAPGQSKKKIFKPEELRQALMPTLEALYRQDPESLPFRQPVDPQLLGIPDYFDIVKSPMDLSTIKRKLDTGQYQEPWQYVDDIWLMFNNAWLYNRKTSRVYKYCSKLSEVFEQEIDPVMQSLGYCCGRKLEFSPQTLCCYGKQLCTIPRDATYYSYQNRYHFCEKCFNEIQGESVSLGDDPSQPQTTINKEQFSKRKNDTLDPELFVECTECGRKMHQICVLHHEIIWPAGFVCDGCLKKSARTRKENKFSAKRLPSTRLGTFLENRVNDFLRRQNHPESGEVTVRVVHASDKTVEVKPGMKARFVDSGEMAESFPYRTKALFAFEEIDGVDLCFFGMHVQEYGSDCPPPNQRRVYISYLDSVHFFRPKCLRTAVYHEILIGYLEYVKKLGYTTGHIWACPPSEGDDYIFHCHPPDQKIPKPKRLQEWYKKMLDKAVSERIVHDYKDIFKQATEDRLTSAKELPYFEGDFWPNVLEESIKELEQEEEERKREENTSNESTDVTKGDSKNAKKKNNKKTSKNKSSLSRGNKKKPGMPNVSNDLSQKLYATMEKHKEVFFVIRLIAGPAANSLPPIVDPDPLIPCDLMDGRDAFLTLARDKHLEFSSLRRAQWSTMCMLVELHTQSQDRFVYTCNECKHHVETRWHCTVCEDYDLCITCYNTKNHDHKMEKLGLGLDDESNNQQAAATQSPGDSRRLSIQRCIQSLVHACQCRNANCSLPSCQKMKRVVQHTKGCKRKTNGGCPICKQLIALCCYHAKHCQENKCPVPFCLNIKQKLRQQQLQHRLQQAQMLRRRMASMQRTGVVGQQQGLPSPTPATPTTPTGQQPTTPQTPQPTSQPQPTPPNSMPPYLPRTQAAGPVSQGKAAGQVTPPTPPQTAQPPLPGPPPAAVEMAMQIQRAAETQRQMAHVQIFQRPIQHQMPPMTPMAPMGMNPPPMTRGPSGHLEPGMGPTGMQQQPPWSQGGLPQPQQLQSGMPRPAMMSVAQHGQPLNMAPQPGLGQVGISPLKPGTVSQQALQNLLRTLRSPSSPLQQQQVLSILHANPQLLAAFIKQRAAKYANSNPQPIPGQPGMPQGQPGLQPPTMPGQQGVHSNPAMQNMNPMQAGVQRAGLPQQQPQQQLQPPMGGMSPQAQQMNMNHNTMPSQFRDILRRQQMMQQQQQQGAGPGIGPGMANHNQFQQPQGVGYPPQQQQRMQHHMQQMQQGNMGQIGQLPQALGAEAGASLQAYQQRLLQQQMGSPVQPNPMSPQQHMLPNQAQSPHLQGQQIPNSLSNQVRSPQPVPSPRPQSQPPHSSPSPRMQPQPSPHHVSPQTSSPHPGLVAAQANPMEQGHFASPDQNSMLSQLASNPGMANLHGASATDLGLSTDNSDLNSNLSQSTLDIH
T5 sequence (Q9BXF3 whole entry): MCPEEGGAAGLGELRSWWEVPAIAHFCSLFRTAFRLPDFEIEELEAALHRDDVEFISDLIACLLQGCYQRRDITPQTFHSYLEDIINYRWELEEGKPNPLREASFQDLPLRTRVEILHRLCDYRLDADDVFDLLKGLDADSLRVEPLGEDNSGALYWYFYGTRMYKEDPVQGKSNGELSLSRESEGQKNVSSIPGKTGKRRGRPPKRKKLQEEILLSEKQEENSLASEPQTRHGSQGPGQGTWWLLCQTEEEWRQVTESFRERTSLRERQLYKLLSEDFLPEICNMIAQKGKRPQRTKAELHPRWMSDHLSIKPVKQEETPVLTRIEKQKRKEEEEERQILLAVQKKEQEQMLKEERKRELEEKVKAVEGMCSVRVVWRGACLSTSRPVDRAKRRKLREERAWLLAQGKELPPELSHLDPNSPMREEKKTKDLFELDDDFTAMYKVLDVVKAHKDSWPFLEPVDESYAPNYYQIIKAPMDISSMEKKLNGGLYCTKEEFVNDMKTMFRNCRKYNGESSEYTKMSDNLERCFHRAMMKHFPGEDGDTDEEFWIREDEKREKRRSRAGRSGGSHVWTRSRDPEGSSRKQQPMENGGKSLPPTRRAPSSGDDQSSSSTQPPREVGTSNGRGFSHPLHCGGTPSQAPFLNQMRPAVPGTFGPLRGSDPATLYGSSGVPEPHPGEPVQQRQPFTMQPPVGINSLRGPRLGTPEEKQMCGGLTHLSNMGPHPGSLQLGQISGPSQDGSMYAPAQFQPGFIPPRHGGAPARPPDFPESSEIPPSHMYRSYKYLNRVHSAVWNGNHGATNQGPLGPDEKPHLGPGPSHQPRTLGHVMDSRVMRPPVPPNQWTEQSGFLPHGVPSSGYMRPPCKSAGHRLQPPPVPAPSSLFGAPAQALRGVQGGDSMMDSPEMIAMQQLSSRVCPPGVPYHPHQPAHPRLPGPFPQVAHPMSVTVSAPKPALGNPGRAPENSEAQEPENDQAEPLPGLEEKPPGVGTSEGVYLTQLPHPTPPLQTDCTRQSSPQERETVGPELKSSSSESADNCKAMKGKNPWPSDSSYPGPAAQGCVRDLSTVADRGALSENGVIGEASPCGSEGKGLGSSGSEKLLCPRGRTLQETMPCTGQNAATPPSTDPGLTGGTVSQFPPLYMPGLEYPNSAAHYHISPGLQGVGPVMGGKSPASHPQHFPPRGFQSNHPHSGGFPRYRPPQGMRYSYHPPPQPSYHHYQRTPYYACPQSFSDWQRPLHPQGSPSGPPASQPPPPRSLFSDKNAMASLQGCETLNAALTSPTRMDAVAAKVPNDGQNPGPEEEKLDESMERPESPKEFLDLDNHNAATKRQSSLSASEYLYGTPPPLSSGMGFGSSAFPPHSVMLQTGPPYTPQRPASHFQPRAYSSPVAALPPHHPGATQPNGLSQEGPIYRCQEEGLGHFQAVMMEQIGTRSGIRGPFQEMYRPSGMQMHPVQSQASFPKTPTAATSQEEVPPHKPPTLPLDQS

As to `Cc1noc(C)c1-c1ccc2c(c1)[C@H](c1ccccc1)N(C)C2=O` [PNZ5], the thermal shift (ΔTm) (as a rule, the change in melting temperature against a reference sample) at 10 µM in experiment [1] came to 0.45 °C; in experiment [2], 2.49 °C; in experiment [3], 0.38 °C; in experiment [4], 0.26 °C; in [5] it was 0.19 °C; in experiment [6] it was 0.41 °C. Moreover, the ΔTm at 10 µM in [7] turned out to be 1.85 °C; in experiment [8] it was 0.37 °C; in experiment [9] it was 8.81 °C; in experiment [10], 0.32 °C; in [11], 0.89 °C; in experiment [12] it was 9.54 °C. The thermal shift (ΔTm) at 10 µM in experiment [13] was 0.3 °C; in experiment [14] it was 0.51 °C; in experiment [15] it was 0.36 °C.
